Measured values from PubChem BioAssay (NCI).
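Five compound concentrations were applied to cells in 96-well plates for 48 hours; endpoints were derived by simple linear interpolation of the resulting dose-response curve. Here, GI50 denotes the concentration required for 50% inhibition of growth. TGI: total growth inhibition.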

How the values were obtained:
Assay in all cases: DTP human tumour cell line panel, 48 h
A498 renal = tested on: A498 renal
CCRF-CEM leukemia = tested on: CCRF-CEM leukemia
DU-145 prostate = tested on: DU-145 prostate
EKVX NSCLC = tested on: EKVX NSCLC
HT29 colon = tested on: HT29 colon
LOX IMVI melanoma = tested on: LOX IMVI melanoma
MALME-3M melanoma = tested on: MALME-3M melanoma
MOLT-4 leukemia = tested on: MOLT-4 leukemia
SNB-75 CNS = tested on: SNB-75 CNS
UO-31 renal = tested on: UO-31 renal

Structure (SMILES)	GI50 (A498 renal)	TGI (A498 renal)	GI50 (CCRF-CEM leukemia)	TGI (CCRF-CEM leukemia)	GI50 (DU-145 prostate)	TGI (DU-145 prostate)	GI50 (EKVX NSCLC)	TGI (EKVX NSCLC)	GI50 (HT29 colon)	TGI (HT29 colon)	GI50 (LOX IMVI melanoma)	GI50 (MALME-3M melanoma)	TGI (MALME-3M melanoma)	GI50 (MOLT-4 leukemia)	TGI (MOLT-4 leukemia)	GI50 (SNB-75 CNS)	TGI (SNB-75 CNS)	GI50 (UO-31 renal)	TGI (UO-31 renal)	TGI (LOX IMVI melanoma)
O=C(Nc1ccc([N+](=O)[O-])cc1)c1cc2ccccc2cc1O	0.197 µM	0.628 µM	0.754 µM	> 100 µM	0.484 µM	> 100 µM	0.322 µM	3 µM	3.52 µM	> 29.8 µM	0.405 µM	0.258 µM	1.11 µM	0.675 µM	> 21.1 µM	0.538 µM	4.07 µM	0.294 µM	1.15 µM	
c1cc(C2N3CCCN2CC3)ccn1 (configuration not stated)		> 100 µM		> 100 µM		> 100 µM		> 100 µM		> 100 µM			80.1 µM		> 100 µM		> 100 µM		> 100 µM	> 100 µM
COc1cccc2cc(N(C)c3nc(C)nc4ccsc34)ccc12	< 0.01 µM	< 0.015 µM	< 0.01 µM	> 100 µM	< 0.01 µM	10.6 µM	< 0.01 µM	21.1 µM	< 0.01 µM	11.6 µM	< 0.01 µM	< 0.0116 µM	18 µM	< 0.01 µM	29.7 µM	< 0.01 µM	5.3 µM	< 0.01 µM	12.5 µM	13.6 µM
Cc1sc2c(c1C)C(c1ccc(Cl)cc1)=N[C@@H](CC(=O)Nc1ccc(O)cc1)c1nnc(C)n1-2	0.204 µM	2.48 µM	0.317 µM	31.4 µM	14.7 µM	42.8 µM			0.197 µM	18.9 µM	0.109 µM	12.5 µM	33.4 µM	3.85 µM	54.7 µM	0.0297 µM	8.58 µM	0.151 µM	15.4 µM	6.29 µM
CCCCCCCCCCC(CN(CC)CC)C(O)c1ccccc1 (configuration not stated)	3.68 µM	14.4 µM	1.82 µM	4.89 µM	1.89 µM	3.49 µM	1.56 µM	3.74 µM	1.76 µM	3.81 µM	1.75 µM	1.95 µM	3.85 µM	2.25 µM	5.8 µM	1.33 µM	2.7 µM	1.56 µM	3.1 µM	3.19 µM
COc1ccc(NCc2c(O)ccc3ccccc23)cc1		> 100 µM				> 100 µM		> 100 µM		> 100 µM			38.8 µM				> 100 µM		> 100 µM	29.4 µM
COc1ccc(-c2cc3nccn3c(Nc3ncccc3C(N)=O)n2)cc1OC	0.456 µM	> 100 µM	0.827 µM	> 100 µM	2 µM	> 100 µM			1.19 µM	> 100 µM	0.807 µM	> 100 µM	> 100 µM	4.14 µM	> 100 µM	1.04 µM	> 100 µM	0.758 µM	42.1 µM	> 100 µM
COc1ccc(Cn2cc3c(c2-c2ccccc2)CCc2cncnc2-3)cc1	4.87 µM	17.4 µM	3.99 µM	18.3 µM	14.2 µM	33.7 µM	4.5 µM	29.3 µM	3.9 µM	12.9 µM	6.81 µM	3.18 µM	12.8 µM	2.81 µM	11.1 µM	3.98 µM	13.5 µM	10.3 µM	24.2 µM	19.9 µM
c1cc(-c2cnn3nc(N4CCOCC4)ccc23)nc(NC2CC2)n1	5.66 µM	16.6 µM	4.95 µM	> 25 µM	8.66 µM	> 25 µM	10.5 µM	> 25 µM	8.35 µM	> 25 µM	6.23 µM	12.1 µM	> 25 µM	13.7 µM	> 25 µM	5.99 µM	18.6 µM	7.12 µM	> 21.4 µM	> 25 µM
C=C1C(=O)O[C@H]2[C@H]1CC/C(COC(=O)NCc1cccc(OC)c1)=C\CC[C@@]1(C)O[C@@H]21	10.5 µM	22.4 µM	1.14 µM	4.76 µM	1.58 µM	3.04 µM	2 µM	5.81 µM	1.79 µM	3.87 µM	1.51 µM	1.74 µM	3.53 µM	2.38 µM	7.19 µM	12.2 µM	24.7 µM	1.58 µM	2.94 µM	3.01 µM
COc1cc(C(=O)/C=C/c2c(-c3cccs3)nc3ccccn23)cc(OC)c1OC	0.987 µM	> 100 µM	1.66 µM	6.85 µM	1.9 µM	4.81 µM	3.12 µM	> 100 µM	2.09 µM	4.19 µM	1.87 µM	3.65 µM	21.7 µM	1.77 µM	4.39 µM	2.68 µM	10.2 µM	1.07 µM	3.17 µM	4.9 µM
Oc1oc(-c2ccccc2)nc1/C=C1/C=NN=N1		> 100 µM		> 100 µM		> 100 µM		> 100 µM		> 100 µM			> 100 µM		> 100 µM		> 100 µM		> 100 µM	> 100 µM
COC(=O)C1=C2CO[C@@H]3C[C@H]4C(C)(C)CCC[C@]4(C)C(=CC1)[C@]23C	67.5 µM	> 100 µM	21.6 µM	46.4 µM	44 µM	> 100 µM	45.5 µM	> 100 µM	48.4 µM	> 100 µM	36.4 µM	12.1 µM	68.5 µM	5.48 µM	30.5 µM	20.4 µM	50.9 µM	60.7 µM	> 100 µM	> 100 µM
O=C1C(Nc2cccc(O)c2)=C(Sc2ccc(Cl)cc2)C(=O)N1Cc1ccccc1	10.3 µM	25.6 µM	4.08 µM	34.8 µM	12 µM	33.3 µM					8.7 µM	3.81 µM	17.8 µM	3.05 µM	28.3 µM			7.93 µM	> 100 µM	29.1 µM
C#CCOc1cccc(Nc2ncnc3c2ncn3C2CCN(C(=O)CCl)C2)c1 (configuration not stated)	> 100 µM	> 100 µM	4.18 µM	26.3 µM	19.8 µM	37.5 µM	26.1 µM	74.2 µM	19.4 µM	37.4 µM		12.3 µM	28.1 µM			34.1 µM	> 100 µM	15.2 µM	29.6 µM	
CC(C)(C)n1cc(-c2ccnc(NCCCNS(=O)(=O)c3ccc(Cl)cc3)c2)c(-c2cccc(O)c2)n1	1.51 µM	3.72 µM	2.13 µM	7.85 µM	2.75 µM	7.63 µM	2.04 µM	5.36 µM			1.73 µM	1.66 µM	3.41 µM	1.91 µM	5.64 µM	1.37 µM	3.03 µM	1.89 µM	5.02 µM	3.15 µM
CN(C)CCN1C(=O)c2cccc3c(-c4ccc5ncn(C6CCCCC6)c5c4)ccc(c23)C1=O	2.15 µM	5.1 µM	1.84 µM	7.22 µM	3.14 µM	13.5 µM	2.05 µM	7.73 µM	0.938 µM	8.11 µM		1.9 µM	3.93 µM	0.446 µM	10.1 µM	1.78 µM	10.8 µM	1.06 µM	2.4 µM	
COc1cc2c(cc1-c1c(C)noc1C)ncc1[nH]c(=O)n([C@H](C)c3ccccn3)c12	1.55 µM	13.1 µM	1.03 µM	> 100 µM	17.3 µM	> 100 µM			0.244 µM	> 100 µM	0.352 µM	1.05 µM	76.2 µM	4.08 µM	99.3 µM	< 0.0379 µM	> 43.7 µM	0.119 µM	> 57.6 µM	20.3 µM
Cc1[nH]ccc2cc3nc4ccccc4c3cc12	0.421 µM	2.15 µM	1.5 µM	10 µM	2.18 µM	5.83 µM			1.16 µM	3.55 µM		2.27 µM	7.94 µM	0.723 µM	3.13 µM	5.52 µM	18.9 µM	2.02 µM	8.47 µM	
C=CC1=C(C)C(Cc2[nH]c(/C=c3\[nH]/c(=C/C4=NC(=O)C(C)/C4=C\C)c(C)c3CCC(=O)O)c(CCC(=O)OC)c2C)NC1=O (configuration not stated)	> 100 µM	> 100 µM	31.2 µM	> 100 µM	62.6 µM	> 100 µM	47.7 µM	> 100 µM			18.6 µM	31.8 µM	69.8 µM	34.1 µM	> 100 µM			18.9 µM	36.1 µM	37.4 µM
CCCCCC/C=C\CCCCCCCCCc1c(O)c(OC)cc(O)c1CN(C)C		33.4 µM		2.87 µM		36 µM		23.6 µM		16.1 µM					4.5 µM		13.8 µM		15.5 µM	> 100 µM
O=C(O)CCc1nc(-c2ccccc2)c(-c2ccccc2)o1		> 100 µM		> 100 µM		> 100 µM		> 100 µM		> 100 µM			> 100 µM		> 100 µM		> 100 µM			> 100 µM
